Data published in patent US12419877B2, “Solid forms of {[5-(3-chlorophenyl)-3-hydroxypyridine-2-carbonyl]amino}acetic acid, compositions, and uses thereof” (Akebia Therapeutics, Inc., priority 2013, dated 2025).
Values after ≈ are worked out from the molar mass of the structure shown. Where two headings read alike, the source gives them in different places.

Tests used:
[1] = Solubility experiments (approximate solubility by solvent aliquot addition); format: physicochemical; settings: thermodynamic from solid
Protocol: Approximately 20 mg of Form A of Compound (1) was placed in each of 48 vials and 5 volume aliquots of the appropriate solvent systems were added to the appropriate vial. Between each addition, the mixture was checked for dissolution and if no dissolution was apparent, the mixture was warmed to ca. 50° C. and checked again. This procedure was continued until dissolution was observed or until 100 volumes of solvent had been added.

[2] = Dynamic Vapour Sorption (DVS) with XRPD re-analysis; format: physicochemical
Protocol: Dynamic Vapour Sorption (DVS) was performed on a DVS-1 dynamic vapour sorption balance by Surface Measurement Systems. Approximately 10-20 mg of sample was loaded into a wire mesh vapour sorption balance pan of the balance. The sample was subjected to a ramping profile from 20-90% relative humidity (RH) in 10% increments, maintaining the sample at each step until a stable weight had been achieved (99.5% step completion) or 1000 minutes had elapsed. After completion of the sorption cycle, the sample was dried using the same procedure, but all the way down to 0% RH and finally taken back to the starting point of 20% RH. The weight change during the sorption/desorption cycles were plotted, allowing for the hygroscopic nature of the sample to be determined. Following the DVS analysis, the solid was re-analysed by XRPD in order to determine whether there had been any change in physical form.

solubility ([1]; organic solvent or mixture, Solvent: Diisopropyl ether (DIPE), ca. 50° C., read-out: Solubility (mg/mL) (ca. 50° C.)): < 10 mg/mL
solubility ([1]; organic solvent or mixture, Solvent: Dimethyl sulfoxide (DMSO), RT (ca. 22° C.), read-out: Solubility (mg/mL) RT (ca. 22° C.)): > 200 mg/mL
solubility ([1]; organic solvent or mixture, Solvent: Dimethyl sulfoxide (DMSO), ca. 50° C., read-out: Solubility (mg/mL) (ca. 50° C.)): > 200 mg/mL
solubility ([1]; organic solvent or mixture, Solvent: Dimethylacetamide (DMA), RT (ca. 22° C.), read-out: Solubility (mg/mL) RT (ca. 22° C.)): > 200 mg/mL
solubility ([1]; organic solvent or mixture, Solvent: Dimethylacetamide (DMA), ca. 50° C., read-out: Solubility (mg/mL) (ca. 50° C.)): > 200 mg/mL
solubility ([1]; organic solvent or mixture, Solvent: Dimethylformamide (DMF), RT (ca. 22° C.), read-out: Solubility (mg/mL) RT (ca. 22° C.)): > 200 mg/mL
solubility ([1]; organic solvent or mixture, Solvent: Dimethylformamide (DMF), ca. 50° C., read-out: Solubility (mg/mL) (ca. 50° C.)): > 200 mg/mL
solubility ([1]; organic solvent or mixture, Solvent: EtOAc/Cyclohexane (1:2), ca. 50° C., read-out: Solubility (mg/mL) (ca. 50° C.)): < 10 mg/mL
solubility ([1]; organic solvent or mixture, Solvent: EtOAc/Toluene (1:2), RT (ca. 22° C.), read-out: Solubility (mg/mL) RT (ca. 22° C.)): < 14 mg/mL
solubility ([1]; organic solvent or mixture, Solvent: EtOAc/Toluene (1:2), ca. 50° C., read-out: Solubility (mg/mL) (ca. 50° C.)): 14 mg/mL (≈ 45.6 mM)
solubility ([1]; organic solvent or mixture, Solvent: Ethanol (EtOH), RT (ca. 22° C.), read-out: Solubility (mg/mL) RT (ca. 22° C.)): 34 mg/mL (≈ 111 mM)
solubility ([1]; organic solvent or mixture, Solvent: Ethanol (EtOH), ca. 50° C., read-out: Solubility (mg/mL) (ca. 50° C.)): > 34 mg/mL
solubility ([1]; organic solvent or mixture, Solvent: Ethyl acetate (EtOAc), RT (ca. 22° C.), read-out: Solubility (mg/mL) RT (ca. 22° C.)): < 41 mg/mL
solubility ([1]; organic solvent or mixture, Solvent: Ethyl acetate (EtOAc), ca. 50° C., read-out: Solubility (mg/mL) (ca. 50° C.)): 41 mg/mL (≈ 134 mM)
solubility ([1]; organic solvent or mixture, Solvent: Ethylene glycol, RT (ca. 22° C.), read-out: Solubility (mg/mL) RT (ca. 22° C.)): < 10 mg/mL
solubility ([1]; organic solvent or mixture, Solvent: Ethylene glycol, ca. 50° C., read-out: Solubility (mg/mL) (ca. 50° C.)): < 10 mg/mL
solubility ([1]; organic solvent or mixture, Solvent: Heptane, RT (ca. 22° C.), read-out: Solubility (mg/mL) RT (ca. 22° C.)): < 10 mg/mL
solubility ([1]; organic solvent or mixture, Solvent: Heptane, ca. 50° C., read-out: Solubility (mg/mL) (ca. 50° C.)): < 10 mg/mL
solubility ([1]; organic solvent or mixture, Solvent: Isobutyl acetate (iBuOAc), RT (ca. 22° C.), read-out: Solubility (mg/mL) RT (ca. 22° C.)): < 20 mg/mL
solubility ([1]; organic solvent or mixture, Solvent: Isobutyl acetate (iBuOAc), ca. 50° C., read-out: Solubility (mg/mL) (ca. 50° C.)): 20 mg/mL (≈ 65.2 mM)
solubility ([1]; organic solvent or mixture, Solvent: Isopropyl acetate (iPrOAc), RT (ca. 22° C.), read-out: Solubility (mg/mL) RT (ca. 22° C.)): < 26 mg/mL
solubility ([1]; organic solvent or mixture, Solvent: Isopropyl acetate (iPrOAc), ca. 50° C., read-out: Solubility (mg/mL) (ca. 50° C.)): 26 mg/mL (≈ 84.8 mM)
solubility ([1]; organic solvent or mixture, Solvent: MeOH/Water (1%), RT (ca. 22° C.), read-out: Solubility (mg/mL) RT (ca. 22° C.)): < 40 mg/mL
solubility ([1]; organic solvent or mixture, Solvent: MeOH/Water (1%), ca. 50° C., read-out: Solubility (mg/mL) (ca. 50° C.)): 40 mg/mL (≈ 130 mM)
solubility ([1]; organic solvent or mixture, Solvent: MeOH/Water (20%), RT (ca. 22° C.), read-out: Solubility (mg/mL) RT (ca. 22° C.)): < 10 mg/mL
solubility ([1]; organic solvent or mixture, Solvent: Methanol (MeOH), RT (ca. 22° C.), read-out: Solubility (mg/mL) RT (ca. 22° C.)): < 51 mg/mL
solubility ([1]; organic solvent or mixture, Solvent: Methanol (MeOH), ca. 50° C., read-out: Solubility (mg/mL) (ca. 50° C.)): 51 mg/mL (≈ 166 mM)
solubility ([1]; organic solvent or mixture, Solvent: Methyl acetate (MeOAc), RT (ca. 22° C.), read-out: Solubility (mg/mL) RT (ca. 22° C.)): < 68 mg/mL
solubility ([1]; organic solvent or mixture, Solvent: Methyl acetate (MeOAc), ca. 50° C., read-out: Solubility (mg/mL) (ca. 50° C.)): 68 mg/mL (≈ 222 mM)
solubility ([1]; organic solvent or mixture, Solvent: Methyl ethyl ketone (MEK), RT (ca. 22° C.), read-out: Solubility (mg/mL) RT (ca. 22° C.)): < 100 mg/mL
solubility ([1]; organic solvent or mixture, Solvent: Methyl ethyl ketone (MEK), ca. 50° C., read-out: Solubility (mg/mL) (ca. 50° C.)): 100 mg/mL (≈ 326 mM)
solubility ([1]; organic solvent or mixture, Solvent: Methyl isobutyl ketone (MIBK), RT (ca. 22° C.), read-out: Solubility (mg/mL) RT (ca. 22° C.)): < 34 mg/mL
solubility ([1]; organic solvent or mixture, Solvent: Methyl isobutyl ketone (MIBK), ca. 50° C., read-out: Solubility (mg/mL) (ca. 50° C.)): 34 mg/mL (≈ 111 mM)
solubility ([1]; organic solvent or mixture, Solvent: N-methyl-2-pyrrolidone (NMP), RT (ca. 22° C.), read-out: Solubility (mg/mL) RT (ca. 22° C.)): > 200 mg/mL
solubility ([1]; organic solvent or mixture, Solvent: N-methyl-2-pyrrolidone (NMP), ca. 50° C., read-out: Solubility (mg/mL) (ca. 50° C.)): > 200 mg/mL
solubility ([1]; organic solvent or mixture, Solvent: Nitromethane, RT (ca. 22° C.), read-out: Solubility (mg/mL) RT (ca. 22° C.)): < 10 mg/mL
solubility ([1]; organic solvent or mixture, Solvent: Nitromethane, ca. 50° C., read-out: Solubility (mg/mL) (ca. 50° C.)): < 10 mg/mL
solubility ([1]; organic solvent or mixture, Solvent: Tetrahydrofuran (THF), RT (ca. 22° C.), read-out: Solubility (mg/mL) RT (ca. 22° C.)): > 200 mg/mL
solubility ([1]; organic solvent or mixture, Solvent: Tetrahydrofuran (THF), ca. 50° C., read-out: Solubility (mg/mL) (ca. 50° C.)): > 200 mg/mL
solubility ([1]; organic solvent or mixture, Solvent: Toluene, RT (ca. 22° C.), read-out: Solubility (mg/mL) RT (ca. 22° C.)): < 10 mg/mL
solubility ([1]; organic solvent or mixture, Solvent: Toluene, ca. 50° C., read-out: Solubility (mg/mL) (ca. 50° C.)): < 10 mg/mL
solubility ([1]; organic solvent or mixture, Solvent: Trifluoroethanol (TFE), RT (ca. 22° C.), read-out: Solubility (mg/mL) RT (ca. 22° C.)): < 10 mg/mL
solubility ([1]; organic solvent or mixture, Solvent: Trifluoroethanol (TFE), ca. 50° C., read-out: Solubility (mg/mL) (ca. 50° C.)): < 10 mg/mL
solubility ([1]; organic solvent or mixture, Solvent: methyl tert-butyl ether (MTBE), RT (ca. 22° C.), read-out: Solubility (mg/mL) RT (ca. 22° C.)): 14 mg/mL (≈ 45.6 mM)
solubility ([1]; organic solvent or mixture, Solvent: methyl tert-butyl ether (MTBE), ca. 50° C., read-out: Solubility (mg/mL) (ca. 50° C.)): > 14 mg/mL
solubility ([1]; Solvent: Water, RT (ca. 22° C.), read-out: Solubility (mg/mL) RT (ca. 22° C.)): < 10 mg/mL
solubility ([1]; Solvent: Water, ca. 50° C., read-out: Solubility (mg/mL) (ca. 50° C.)): < 10 mg/mL
water sorption at 90% RH ([2]; DVS, 90% RH): 0.13%
XRPD analysis following DVS (change in physical form) ([2]; after DVS sorption/desorption cycle): no change in form
hygroscopicity (DVS) ([2]; judged from water sorption at 90% RH): non-hygroscopic
Compound: O=C(O)CNC(=O)c1ncc(-c2cccc(Cl)c2)cc1O [Form A of Compound (I), {[5-(3-chlorophenyl)-3-hydroxypyridine-2-carbonyl]amino}acetic acid]
